How the values were obtained:
[1] = tested on: Wheat powdery mildew (Erysiphe graminis); experiment: open field trial on wheat, powdery mildew; assay type: in vivo; settings: natural contamination, measured 59 days after the application
Procedure: (§1) They are intended to give an illustration of the efficacy of the compositions according to the invention on cereal diseases, in particular the compositions combining compound (A), having the chemical name N-ethyl-N-methyl-N′-[4-(chloro-3-trifluoromethylphénoxy)-2,5-xylyl]formamidine, with fungicidal compounds of the triazole and morpholine type. The trials on cereals were carried out in an open field.
(§2) The objective of these field trials is therefore to test the efficacy of compounds (A) of formula (I), in particular N-ethyl-N-methyl-N′-[4-(chloro-3-trifluoromethylphenoxy)-2,5-xylyl]formamidine, alone at 125 g/ha and combined with 2 fungicides which are commercially available: fluquinconazole (100 g/ha) and fenpropimorph (750 g/ha) representing 2 classes of fungicidal compounds. Powdery mildew, brush rust and Septoria disease mycosphaerella graminicola (Septoria tritici) are the principal diseases treated.
The products tested are therefore
N-ethyl-N-methyl-N′-[4-(chloro-3-trifluorométhylphénoxy)-2,5-xylyl]-formamidine as compound (A) at 125 g/ha as an EC type formulation at 100 g/l, fluquinconazole as compound (B) at 100 g/ha as a formulation at 100 g/l, fenpropimorph as another compound (B) at 750 g/ha at 750 g/l, compound (A) and fluquinconazole combination at 125+100 g/ha as a fresh preparation, compound (A) and fenpropimorph combination at 125+750 g/ha, also as a fresh preparation, epoxyconazole+kresoxim-methyl at 125+125 g/ha on the 3 diseases, quinoxyfen at 150 g/ha on powdery mildew.
(§3) Each trial comprises 3 repeats and untreated control plots are included in the experimental design in order to measure the severity of the diseases.
All the trials are conducted under natural contamination conditions. The equipment for application is a constant compressed air pressure back sprayer. The spray nozzles have slits. […]

[2] = tested on: powdery mildew, brown rust and Septoria disease; experiment: open field trials on cereals, conclusion over the 3 diseases; assay type: in vivo
Procedure: as §1, §2, §3
All the trials are conducted under natural contamination conditions. The equipment for application is a constant compressed air pressure back sprayer. The spray nozzles have slits.
The efficacy results are obtained from controls carried out in the field: […]

Row | SMILES | efficacy / persistence of activity on wheat powdery mildew [1] | effect on persistence of activity of compounds (B) ([2]; 3 major cereal diseases: powdery mildew, brown rust and Septoria disease) | persistence of activity ([2]; compound alone)
1 | Fc1ccc(Oc2ccnc3cc(Cl)cc(Cl)c23)cc1 [Quinoxyfen, quinoxyfen] | low but significant efficacy | – | –
2 | CC(Cc1ccc(C(C)(C)C)cc1)CN1C[C@@H](C)O[C@@H](C)C1 (some centres unmarked) [fenpropimorph] | no longer have an activity | – | –
3 | CCN(C)C=Nc1cc(C)c(Oc2ccc(Cl)c(C(F)(F)F)c2)cc1C [compound (A), N-ethyl-N-methyl-N′-[4-(chloro-3-trifluoromethylphénoxy)-2,5-xylyl]formamidine] | – | significantly improve the persistence of activity of compounds (B) fluquinconazole and fenpropimorph | not very persistent by itself
4 | O=c1c2cc(F)ccc2nc(-n2cncn2)n1-c1ccc(Cl)cc1Cl [Fluquinconazole, fluquinconazole] | no longer have an activity | – | –

— US20040241098A1, “Fungicidal mixture containing arylamidine derivatives” (priority 2001, published 2004)
